{"source": "paper PMC2885425", "about": "“Complete Phenotypic Recovery of an Alzheimer's Disease Model by a Quinone-Tryptophan Hybrid Aggregation Inhibitor” (PLoS ONE, 2010)", "key": {"[1]": {"target": "T1, β-amyloid polypeptide (Aβ1–42) (Homo sapiens, UniProt P05067)", "T1 construct": "gene APP; Aβ1–42 (synthetic, early oligomeric assemblies); NMR with Aβ12–28", "T1 sequence (P05067 672-713)": "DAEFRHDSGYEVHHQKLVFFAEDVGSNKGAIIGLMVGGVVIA", "assay": "fluorescence anisotropy titration (Aβ[…] early assemblies); supported by 1H-NMR shift perturbation with Aβ[…] and ThT fibril inhibition (IC50 […])", "type": "binding"}, "[2]": {"target": "Arctic (Arc) (E22G) mutant form of Aβ1–42 (human)", "assay": "immunoprecipitation with antibody 6E10 and western blot of SDS-stable oligomers; head extracts (PBS, protease inhibitor, 1% SDS) of 6 day old Aβarc1-42-expressing flies on regular food; samples boiled"}}, "data": [{"compound": "O=C1C=C(N[C@@H](Cc2c[nH]c3ccccc23)C(=O)O)C(=O)c2ccccc21", "note": "[IL, 1,4-naphthoquinon-2-yl-L-tryptophan]", "values": [{"measurement": "Kd", "setting": "[1]", "result": "~0.09", "unit": "µM"}]}, {"compound": "Arctic (Arc) (E22G) mutant form of Aβ1–42 (peptide)", "values": [{"measurement": "stoichiometry N", "setting": "[2]", "result": 4}]}]}
